From patent US8354455B2, “Prodrugs containing novel bio-cleavable linkers” (Piramal Enterprises Limited and Apparao Satyam, priority 2004, dated 2013)
Read-outs that look alike come from different tables or passages of the source. Marks after values point to notes of the source that are not given here.

Key:
rats = experiment: Neurotoxicity, rats p.o. (Test 2 and Test 3); settings: Test 2, rats p.o., 30 mg/kg
convulsant metrazol = experiment: Subcutaneous Metrazol Seizure Threshold Test (scMET), Test 1, mice i.p.; assay type: in vivo; settings: for minimal effective dose: Mus musculus, ip; for ScMET (number of animal protected/number of animal tested): 300 mg/kg (+)
mice = settings: for toxicity (in words): Test 1, mice i.p.; for Rotorod Toxicity 4.0 h / Rotorod Toxicity (number of animals exhibiting toxicity/number of animals tested) / Rotorod Toxicity 0.5 h: mice, i.p.; for Rotorod Toxicity 4.0 h / Rotorod Toxicity 0.5 h: symbol = dose with toxicity; for Rotorod Toxicity (number of animals exhibiting toxicity/number of animals tested) / Rotorod Toxicity 0.5 h: 0.5 h; for Rotorod Toxicity (number of animals exhibiting toxicity/number of animals tested): 300 mg/kg (+)
MES-induced seizures = experiment: Maximal Electroshock Test (MES), Test 1, mice i.p.; assay type: in vivo; settings: for minimal effective dose: Mus musculus, ip, symbol = dose with activity; for activity in MES model (in words): Test 1, mice i.p.; for MES (number of animal protected/number of animal tested): mice, i.p., 300 mg/kg (+)
[1] = 0.5 h, read-out: ScMET 0.5 h, mice, i.p., 0.5 h, symbol = dose with activity
[2] = 4 h, read-out: ScMET 4.0 h, mice, i.p., 4.0 h, symbol = dose with activity
[3] = 0.5 h, read-out: MES 0.5 h, mice, i.p., 0.5 h
[4] = 4 h, read-out: MES 4.0 h, mice, i.p., 4.0 h

Compound | Toxicity (number of animals exhibiting toxicity/number of animals tested) (rats; 1.00 h) | Toxicity (number of animals exhibiting toxicity/number of animals tested) (rats; 2.00 h) | Toxicity (number of animals exhibiting toxicity/number of animals tested) (rats; 4.00 h) | minimal effective dose (convulsant metrazol; [1]) | minimal effective dose (convulsant metrazol; [2]) | toxicity (in words) (mice) | Rotorod Toxicity 4.0 h (mice) | minimal effective dose (MES-induced seizures; [3]) | activity in MES model (in words) (MES-induced seizures) | MES (number of animal protected/number of animal tested) (MES-induced seizures; 4.0 h) | ScMET (number of animal protected/number of animal tested) (convulsant metrazol; mice, i.p., 0.5 h) | Rotorod Toxicity (number of animals exhibiting toxicity/number of animals tested) (mice) | Rotorod Toxicity 0.5 h (mice) | minimal effective dose (MES-induced seizures; [4]) | MES (number of animal protected/number of animal tested) (MES-induced seizures; 0.5 h) | Toxicity (number of animals exhibiting toxicity/number of animals tested) (rats; 0.50 h) | ScMET 0.5 h (convulsant metrazol; mice, i.p., 0.5 h, symbol = dose with activity) | ScMET 4.0 h (convulsant metrazol; mice, i.p., 4.0 h, symbol = dose with activity)
Nc1nc(NC(=O)OCCSSCCOC(=O)NCC2(CC(=O)O)CCCCC2)nnc1-c1cccc(Cl)c1Cl [I-AA-MPD11] | 0/4 | 0/4 | 0/4 | > 300 mg/kg | > 300 mg/kg | no or mild toxicity | — (— = no activity or no toxicity at 300 mg/kg) | > 300 mg/kg | active in MES | (1/1) | – | – | – | – | – | – | – | –
CCOC(=O)CC1(CNC(=O)OCCSSCCOC(C)=O)CCCCC1 [I-A1-PD13] | – | – | – | < 300 mg/kg | > 300 mg/kg | – | — (— = no activity or no toxicity at 300 mg/kg) | < 300 mg/kg | – | – | (1/1) | (1/4) | + (+ = activity or toxicity at 300 mg/kg) | > 300 mg/kg | (1/1) | – | – | –
CCOC(=O)CC1(CNC(=O)OCCSSCCOC(=O)NC(CO)C(=O)OC)CCCCC1 (stereo not shown) [I-A1-PD6] | – | – | – | < 300 mg/kg | > 300 mg/kg | – | — (— = no activity or no toxicity at 300 mg/kg) | < 300 mg/kg | – | – | (1/1) | (4/4)^i | + (+ = activity or toxicity at 300 mg/kg) | > 300 mg/kg | (1/1) | – | – | –
CCOC(=O)CC1(CNC(=O)OCCSSCCOC(=O)NC(=O)[C@H](CC)N2CCCC2=O)CCCCC1 [I-AA-MPD13] | – | – | – | < 300 mg/kg | > 300 mg/kg | – | — (— = no activity or no toxicity at 300 mg/kg) | > 300 mg/kg | – | – | – | – | + (+ = activity or toxicity at 300 mg/kg) | > 300 mg/kg | – | – | – | –
CS(=O)(=O)NC(=O)OCCSSCCOC(=O)Nc1nnc(-c2cccc(Cl)c2Cl)c(N)n1 [I-A1-PD15] | 0/4 | 0/4 | 0/4 | – | – | no or mild toxicity | – | – | active in MES | (1/1) | – | – | – | – | – | 0/4 | — (— = no activity or no toxicity at 300 mg/kg) | — (— = no activity or no toxicity at 300 mg/kg)
CCOC(=O)CC1(CNC(=O)OCCSSCCOC(=O)NC(CCC(=O)OC)C(=O)OC)CCCCC1 (stereo not shown) [I-A1-PD7] | – | – | – | < 300 mg/kg | > 300 mg/kg | – | — (— = no activity or no toxicity at 300 mg/kg) | < 300 mg/kg | – | – | (1/1)^e | (2/4)^d | + (+ = activity or toxicity at 300 mg/kg) | > 300 mg/kg | (1/1) | – | – | –
